Experimental data as given in patent US6355673B1, “Substituted diaminocarboxylic acids” (Aventis Pharma Deutschland GmbH, priority 1997, dated 2002).
pIC50: −log10 of the molar value.

Legend:
stromelysin (MMP-3) = biological target: T1, stromelysin (MMP-3) (Homo sapiens, UniProt P08254); experiment: Enzyme inhibition of the catalytic domain of human stromelysin (fluorogenic substrate); type: biochemical; details: 15 min preincubation, pH=6.5, fluorescence 328 nm (ex)/393 nm (em)
T1 construct: enzymatic activity of the catalytic domains of human stromelysin and of neutrophil collagenase; made in house
Experimental: (§1) Preparation and determination of the enzymatic activity of the catalytic domains of human stromelysin and of neutrophil collagenase.
(§2) The enzymes stromelysin (MMP-3) and neutrophil collagenase (MMP-8) were prepared according to Ye et al. (Biochemistry; 31 (1992) pages 11231-11235). To measure the enzyme activity or the enzyme inhibitor action, 70 μl of buffer solution and 10 μl of enzyme solution are incubated for 15 min with 10 μl of a 10% strength (v/v) aqueous dimethyl sulfoxide solution, which optionally contains the enzyme inhibitor. After addition of 10 μl of a 10% strength (v/v) aqueous dimethyl sulfoxide solution which contains 1 mil/L of the substrates, the enzyme reaction is monitored by fluorescence spectroscopy (328 nm (ex)/393 nm(em)). The enzyme activity is shown as the extinction increase/min. The IC50 values listed in Table 2 are determined as those inhibitor concentrations which in each case lead to a 50% inhibition of the enzyme.
(§3) The buffer solution contains 0.05% Brij (Sigma, Deisenhofen, Germany) and also 0.1 mol/L tris/HCl, 0.1 mol/L NaCl, 0.01 mol/L CaCl2 and 0.1 mol/L piperazine-N,N′-bis(2-ethanesulfonic acid) (pH=6.5). The enzyme solution contains 5 μg/ml of one of the enzyme domains prepared according to Ye et al. The substrate solution contains 1 mil/L of the fluorogenic substrate (7-methoxycoumarin-4-yl)acetyl-Pro-Leu-Gly-Leu-3-(2′,4′-dinitrophenyl)-L-2,3-diaminopropionyl-Ala-Arg-NH2 (Bachem, Heidelberg, Germany).

[1] = biological target: T2, neutrophil collagenase (MMP-8) (Homo sapiens, UniProt P22894); experiment: Enzyme inhibition of the catalytic domain of neutrophil collagenase (fluorogenic substrate); type: biochemical; details: 15 min preincubation, pH=6.5, fluorescence 328 nm (ex)/393 nm (em)
T2 construct: enzymatic activity of the catalytic domains of human stromelysin and of neutrophil collagenase; made in house
Experimental: as §1, §2, §3

T1 sequence (P08254 100-272 limits assumed): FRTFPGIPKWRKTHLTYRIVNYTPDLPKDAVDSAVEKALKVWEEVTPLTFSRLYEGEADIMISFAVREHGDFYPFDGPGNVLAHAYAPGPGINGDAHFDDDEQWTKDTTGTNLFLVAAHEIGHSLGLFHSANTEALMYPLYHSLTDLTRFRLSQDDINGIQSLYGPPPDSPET
T2 sequence (P22894 100-262 limits assumed): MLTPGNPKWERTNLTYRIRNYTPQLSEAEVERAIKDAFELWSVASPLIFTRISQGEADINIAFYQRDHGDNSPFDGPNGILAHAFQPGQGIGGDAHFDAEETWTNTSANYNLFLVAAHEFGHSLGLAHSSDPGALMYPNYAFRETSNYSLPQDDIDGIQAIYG

SMILES | pIC50 (stromelysin (MMP-3)) | pIC50 [1]
O=C(CC(C(=O)O)c1ccccc1)NCCC[C@@H](NS(=O)(=O)c1ccc(-c2ccc(Cl)cc2)cc1)C(=O)O (single isomer, unassigned) [Example 38] | 8.30 | 8.70
O=C(NCCC[C@H](NS(=O)(=O)c1ccc(-c2ccc(Cl)cc2)cc1)C(=O)O)c1cccc(C(F)(F)F)c1 [Example 130] | 7.70 | 8.40
CC1CC1C(=O)NCCC[C@H](NS(=O)(=O)c1ccc(-c2ccc(Cl)cc2)cc1)C(=O)O (some centres unmarked) [Example 69] | 8.40 | 8.70
O=C(NCCC[C@H](NS(=O)(=O)c1ccc(-c2ccc(Cl)cc2)cc1)C(=O)O)c1ccc(Cc2ccccc2)cc1 [Example 103] | 7.15 | 7.22
COc1ccc(C(=O)NCCC[C@H](NS(=O)(=O)c2ccc(-c3ccc(Cl)cc3)cc2)C(=O)O)c(OC)c1 [Example 104] | 7.52 | 8.10
CN(C)c1ccc(C(=O)NCCC[C@@H](NS(=O)(=O)c2ccc(-c3ccc(Cl)cc3)cc2)C(=O)O)cc1 [Example 43] | 7.40 | 7.70
O=C(CC(C(=O)O)c1ccccc1)NCCC[C@H](NS(=O)(=O)c1ccc(-c2ccc(Cl)cc2)cc1)C(=O)O (some centres unmarked) [Example 55] | 8.15 | 8.52
O=C(NCCC[C@H](NS(=O)(=O)c1ccc(-c2ccc(Cl)cc2)cc1)C(=O)O)c1ccncc1 [Example 127] | 7.70 | 8.52
O=C(NCCC[C@H](NS(=O)(=O)c1ccc(-c2ccc(Cl)cc2)cc1)C(=O)O)c1ccccc1C(F)(F)F [Example 129] | 8.00 | 8.70
O=C(NCCC[C@H](NS(=O)(=O)c1ccc(-c2ccc(Cl)cc2)cc1)C(=O)O)c1cc(F)cc(F)c1 [Example 93] | 7.70 | 8.40
CC(=O)NCSC[C@@H](NS(=O)(=O)c1ccc(-c2ccc(Cl)cc2)cc1)C(=O)O [Example 18] | 7.15 | 8.00
CN(C)c1ccc(C(=O)NCCC[C@H](NS(=O)(=O)c2ccc(-c3ccc(Cl)cc3)cc2)C(=O)O)cc1 [Example 136] | 8.00 | 8.15
CN(C)c1ccc(-c2ccc(S(=O)(=O)N[C@@H](CCCNC(=O)OC(C)(C)C)C(=O)O)cc2)cc1 [Example 59] | 8.30 | 9.00
CN(C)c1ccccc1C(=O)NCCC[C@H](NS(=O)(=O)c1ccc(-c2ccc(Cl)cc2)cc1)C(=O)O [Example 137] | 7.70 | 8.15
O=C(NCCC[C@H](NS(=O)(=O)c1ccc(-c2ccc(Cl)cc2)cc1)C(=O)O)c1cccc(Cl)c1 [Example 91] | 7.52 | 8.30
O=C(O)[C@H](CCCNC(=O)N1CCCC1)NS(=O)(=O)c1ccc(-c2ccc(Cl)cc2)cc1 [Example 143] | 8.30 | 8.70
NCCCC[C@H](NS(=O)(=O)c1ccc(-c2ccc(Cl)cc2)cc1)C(=O)O [Example 12] | 7.22 | 8.00
O=C(Cc1ccc(F)cc1)NCCC[C@H](NS(=O)(=O)c1ccc(-c2ccc(Cl)cc2)cc1)C(=O)O [Example 116] | 7.70 | 8.40
O=C(NCCC[C@H](NS(=O)(=O)c1ccc(-c2ccc(Cl)cc2)cc1)C(=O)O)c1ccccn1 [Example 50] | 8.22 | 8.70
O=C(NCCC[C@H](NS(=O)(=O)c1ccc(-c2ccc(Cl)cc2)cc1)C(=O)O)c1ccc(Cl)cc1Cl [Example 115] | 8.30 | 8.52
COCC(=O)NCCC[C@H](NS(=O)(=O)c1ccc(-c2ccc(Cl)cc2)cc1)C(=O)O [Example 98] | 8.00 | 8.52

More lines, now with the values ahead:

pIC50 (stromelysin (MMP-3)) | pIC50 [1] | SMILES
8.52 | 8.70 | O=C(NCCC[C@H](NS(=O)(=O)c1ccc(-c2ccc(Cl)cc2)cc1)C(=O)O)c1cccs1 [Example 122]
7.52 | 8.52 | CC(C)(CC(=O)O)CC(=O)NCCC[C@H](NS(=O)(=O)c1ccc(-c2ccc(Cl)cc2)cc1)C(=O)O [Example 81]
7.52 | 8.00 | O=C(NCCC[C@H](NS(=O)(=O)c1ccc(-c2ccc(Cl)cc2)cc1)C(=O)O)c1ccc(F)c(F)c1 [Example 87]
7.70 | 7.52 | O=C(CC(C(=O)O)c1ccccc1)NCCC[C@@H](NS(=O)(=O)c1ccc(-c2ccc(Cl)cc2)cc1)C(=O)O (single isomer, unassigned) [Example 39]
7.70 | 8.00 | COc1ccc(C(=O)NCCC[C@H](NS(=O)(=O)c2ccc(-c3ccc(Cl)cc3)cc2)C(=O)O)cc1OC [Example 52]
8.00 | 8.52 | O=C(CC[C@@H](C(=O)O)c1ccccc1)NCCC[C@H](NS(=O)(=O)c1ccc(-c2ccc(Cl)cc2)cc1)C(=O)O [Example 80]
7.70 | 8.30 | O=C(NCCC[C@H](NS(=O)(=O)c1ccc(-c2ccc(Cl)cc2)cc1)C(=O)O)c1ccc(O)cc1 [Example 102]
7.52 | 8.70 | O=C(O)C1CC1C(=O)NCCC[C@H](NS(=O)(=O)c1ccc(-c2ccc(Cl)cc2)cc1)C(=O)O (some centres unmarked) [Example 64]
7.70 | 8.10 | O=C(NCCC[C@H](NS(=O)(=O)c1ccc(-c2ccc(Cl)cc2)cc1)C(=O)O)OCc1ccccc1 [Example 15]
8.40 | 8.70 | Cc1ccsc1C(=O)NCCC[C@H](NS(=O)(=O)c1ccc(-c2ccc(Cl)cc2)cc1)C(=O)O [Example 100]
8.40 | 8.70 | CC(=O)Oc1ccccc1C(=O)NCCC[C@H](NS(=O)(=O)c1ccc(-c2ccc(Cl)cc2)cc1)C(=O)O [Example 73]
7.15 | 8.00 | O=C(NCCC[C@H](NS(=O)(=O)c1ccc(-c2ccccc2)cc1)C(=O)O)c1ccccc1Cl [Example 160]
7.40 | 8.15 | O=C(CCCc1ccccc1)NCCC[C@H](NS(=O)(=O)c1ccc(-c2ccc(Cl)cc2)cc1)C(=O)O [Example 157]
8.40 | 8.70 | O=C(O)[C@@H](CCCN1Cc2ccccc2C1=O)NS(=O)(=O)c1ccc(-c2ccc(Cl)cc2)cc1 [Example 7, 2-(2R)-(4-Chlorobiphenylsulfonylamino)-5-(1-oxo-1,3-dihydro-isoindol-2-yl)pentanoic acid]
7.15 | 7.70 | Cc1ccc(S(=O)(=O)NC(=N)NCCC[C@H](NS(=O)(=O)c2ccc(-c3ccc(Cl)cc3)cc2)C(=O)O)cc1 [Example 21]
8.00 | 8.52 | O=C(Cc1cccs1)NCCC[C@H](NS(=O)(=O)c1ccc(-c2ccc(Cl)cc2)cc1)C(=O)O [Example 111]
7.52 | 8.00 | O=C(O)[C@H](CCCN1C(=O)c2ccc(Cl)cc2C1=O)NS(=O)(=O)c1ccc(-c2ccc(Cl)cc2)cc1 [Example 171]
8.30 | 8.70 | O=C(CCc1ccccc1)NCCC[C@H](NS(=O)(=O)c1ccc(-c2ccc(Cl)cc2)cc1)C(=O)O [Example 133]
7.40 | 7.70 | O=C(NCCC[C@H](NS(=O)(=O)c1ccc(-c2ccc(Cl)cc2)cc1)C(=O)O)c1ccc(Cl)c(Cl)c1 [Example 92]
8.00 | 8.10 | COc1ccc(S(=O)(=O)NCCC[C@H](NS(=O)(=O)c2ccc(-c3ccc(Cl)cc3)cc2)C(=O)O)cc1 [Example 56]
– | 8.70 | CC(C)(C)OC(=O)NCCC[C@H](NS(=O)(=O)c1ccc(-c2ccc(Cl)cc2)cc1)C(=O)O [Example 36]
